{
  "source": "patent US20140357725A1",
  "about": "“TERPENE ANALOGUES AND USES THEREOF FOR TREATING NEUROLOGICAL CONDITIONS” (NEUROQUEST INC., priority 2011, published 2014)",
  "key": {"[1]": {"system": "voltage-gated Na+ channels", "assay": "Sodium (Na+) channel analysis in rat DRG neurons using whole cell patch-clamp", "type": "cell-based", "procedure": "Isolated DRG neurons were suspended in primary neuron basal media and placed on glass coverslips for incubation in humidified atmosphere of 5% CO2 at 37° C. Coverslip carrying cells was transferred to the bath of an inverted microscope (Zeiss), continuously perfused with oxygenated artificial cerebro-spinal fluid (ACSF) containing (in mM) 124 NaCl, 2.5 KCl, 2 CaCl2, 1 MgSO4, 25 NaHCO3, 1 NaH2PO4, and 10 glucose, at a rate of 2-3 ml/min. Recording of whole-cell membrane currents were made at room temperature. Recording pipette (4-6 MO) was filled with internal solution containing (in mM) 145 K-gluconate, 5 NaCl, 1 MgCl2, 0.2 EGTA, 10 HEPES, 2 Mg-ATP, 0.1 Na-GTP, and 10 phosphocreatine. To isolate Na^+ currents, DRG neurons were superfused with ACSF containing tetraethylammonium chloride (TEA) 5 mM, cesium chloride (CsCl) 100 μM and cadmium chloride (CdCl) 1 mM, to block potassium and calcium currents. OBM compounds were freshly dissolved in ASCF containing TEA, CsCl and CdCl, prior application via the bath.\nFor recording Na^+ currents, cells were held at −60 mV before applying a conditioning hyperpolarizing step (50 ms) to −90 mv to reactivate the voltage-gated Na^+ channels. The conditioning pulse was followed by depolarizing (150 ms) test pulses to 50 mV in 10 mV increments. Na^+ currents were recorded in absence, after 3 min in presence of the drugs and after a recovery time of 3 min."}, "[2]": {"system": "zebrafish embryos", "assay": "Zebrafish response assay (embryonic touch response/swim behaviour, complete anaesthesia)", "type": "in vivo", "settings": "Danio rerio, 1.5 h; complete anaesthesia (scale 1) in 50% of embryos, 90 min at 28° C., 54 hpf AB wild type embryos", "source_text": "Briefly, the ZEA assay involved applying essential oils, fractions or individual compounds to developmentally staged zebrafish embryos followed by monitoring of embryonic touch response/swim behaviour and evaluation of the dose response relationship for each substance. Using a four point scale to describe the embryonic behaviours (Table 4), initial analysis focused on monitoring and recording these changes and evaluating the level of bioactivity. […] (optimal temperature for embryonic growth) in the diluted compound. • The four point scale (Table 4) was used to evaluate the touch response and swim behaviour for each embryo in all wells. • The effectiveness of the compound was based on its ability to generate complete anesthesia (scale: 1) in 50% of the embryos at a given concentration (EC50). • The EC50 values were calculated using GraphPad Prism® software to analyze the log (dose) response curves. The results are shown in Table 3, and in FIG. 3 as a dose response curve of zebrafish embryo assay, a percentage response versus percentage of compound present."}, "[3]": {"biological_target": "T1, TRPV1 (Homo sapiens, UniProt Q8NER1)", "T1 construct": "expressed in transfected cells; host or cells: HEK-TRPV cells", "T1 sequence (Q8NER1 whole entry, species assumed)": "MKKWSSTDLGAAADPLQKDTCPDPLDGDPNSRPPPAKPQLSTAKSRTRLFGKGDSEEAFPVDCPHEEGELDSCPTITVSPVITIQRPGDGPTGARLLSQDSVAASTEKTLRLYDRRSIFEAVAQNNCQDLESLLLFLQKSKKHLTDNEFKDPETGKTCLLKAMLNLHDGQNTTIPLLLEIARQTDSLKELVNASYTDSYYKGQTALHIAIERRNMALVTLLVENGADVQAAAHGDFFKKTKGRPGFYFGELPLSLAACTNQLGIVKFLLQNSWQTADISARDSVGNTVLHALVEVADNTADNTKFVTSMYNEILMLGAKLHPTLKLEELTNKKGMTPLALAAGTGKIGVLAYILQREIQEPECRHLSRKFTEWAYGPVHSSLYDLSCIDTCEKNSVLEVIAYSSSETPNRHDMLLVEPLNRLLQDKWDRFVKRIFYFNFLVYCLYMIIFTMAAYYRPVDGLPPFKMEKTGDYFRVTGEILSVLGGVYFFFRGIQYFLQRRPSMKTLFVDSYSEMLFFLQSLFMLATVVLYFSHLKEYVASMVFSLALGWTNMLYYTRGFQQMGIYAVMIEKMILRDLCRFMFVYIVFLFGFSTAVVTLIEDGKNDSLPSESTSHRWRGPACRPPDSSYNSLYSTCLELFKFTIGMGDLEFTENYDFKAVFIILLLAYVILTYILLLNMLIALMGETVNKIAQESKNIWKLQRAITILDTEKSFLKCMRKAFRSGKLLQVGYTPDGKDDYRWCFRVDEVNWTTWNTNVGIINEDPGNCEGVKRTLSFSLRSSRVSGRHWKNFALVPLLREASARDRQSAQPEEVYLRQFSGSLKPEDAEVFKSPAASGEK", "assay": "TRPV1 assay, calcium imaging", "type": "cell-based", "settings": "Ca2+ imaging after 1 μM capsaicin, HEK-TRPV cells", "procedure": "Briefly, cells were seeded into poly-L-lysine-coated, glass-bottom, 24-well plates (1×10^5 cells/well) and incubated overnight under standard culture conditions to achieve the desired confluency. Culture media was removed and cells were washed twice with HBS prior to incubation for 15 to 60 min at 37° C. with a labelling mixture comprised of Fura-2-AM and pluronic acid in HBS. Data collection occurred over an eight minute period and followed the same general sequence. Following loading, cells were stimulated by addition of 1 μM of capsaicin agonist for 2 min, after which a concentration series of the test sample (e.g. (0.5, 5, 10, 50 μg/ml) was added and imaging continued for an additional 5 min. Capsazepine (20 μM) served as a known reference antagonist, while cells that were mock-treated or received vehicle (e.g., DMSO) alone served as negative controls. For imaging, plates were placed on the stage of an inverted epifluorescence microscope (e.g., Axiovert 200, Zeiss) equipped with a CCD digital camera (e.g., Axiocam MRm, Zeiss). For each well of the plate, a sequence of image pairs (excitation at 340 nm and 380 nm) were collected to capture intracellular calcium flux. Image sequences were analyzed in ImageJ (NIH) and average pixel intensities calculated for six representative cells in each test condition to achieve mean fluorescence."}, "[4]": {"settings": "Na+ currents, rat DRG neurons, whole-cell patch clamp, 3 min in presence of drug, read-out: IC50"}},
  "note": "Read-outs that look alike come from different tables or passages of the source.",
  "data": [
    {"compound": "CC(C)=CCCC1(c2ccccc2)CC1CO", "note": "(centres unmarked) [OBM 2999, (2-(4-methylpent-3-en-1-yl)-2-phenylcyclopropyl) methanol]", "values": [
      {"measurement": "IC50", "setting": "[1]; [4]", "result": "1000 to 5000", "unit": "µM"},
      {"measurement": "EC50", "setting": "[2]", "result": "100 to 450", "unit": "µM"}
    ]},
    {"compound": "COCC1CC1(C)CCC=C(C)C", "note": "(centres unmarked) [OBM 2989, 2-(methoxymethyl)-1-methyl-1-(4-methylpent-3-en-1-yl)cyclopropane]", "values": [
      {"measurement": "IC50", "setting": "[1]; [4]", "result": "5000 to 10000", "unit": "µM"},
      {"measurement": "EC50", "setting": "[2]", "result": "> 450", "unit": "µM"}
    ]},
    {"compound": "CC(C)=CCCC1(C)CC1COCc1ccccc1Cl", "note": "(centres unmarked) [OBM 2995, 1-chloro-2-(((2-methyl-2-(4-methylpent-3-en-1-yl)cyclopropyl)methoxy)methyl)benzene]", "values": [
      {"measurement": "IC50", "setting": "[1]; [4]", "result": "< 10000", "unit": "µM"},
      {"measurement": "EC50", "setting": "[2]", "result": "> 450", "unit": "µM"}
    ]},
    {"compound": "CC(C)=CCCC1(C)CC1COCc1ccccc1", "note": "(centres unmarked) [OBM 2993]", "values": [
      {"measurement": "IC50", "setting": "[1]; [4]", "result": "< 10000", "unit": "µM"},
      {"measurement": "EC50", "setting": "[2]", "result": "> 450", "unit": "µM"}
    ]},
    {"compound": "CC(C)=CCCC1(C)CC1COCc1ccccc1Br", "note": "(centres unmarked) [OBM 2994, 1-bromo-2-(((2-methyl-2-(4-methylpent-3-en-1-yl)cyclopropyl)methoxy)methyl)benzene]", "values": [
      {"measurement": "IC50", "setting": "[1]; [4]", "result": "< 10000", "unit": "µM"},
      {"measurement": "EC50", "setting": "[2]", "result": "> 450", "unit": "µM"}
    ]},
    {"compound": "CC(C)=CCCC1(C)CC1CO", "note": "(centres unmarked) [OBM 2979, (2-methyl-2-(4-methylpent-3-en-1-yl)cyclopropyl)methanol]", "values": [
      {"measurement": "IC50", "setting": "[1]; [4]", "result": "100 to 1000", "unit": "µM"},
      {"measurement": "IC50", "setting": "[1]; percentage sodium current versus concentration, FIG. 1, read-out: Calculated IC50", "result": 700, "unit": "µM"},
      {"measurement": "IC50", "setting": "[3]", "result": "agonist"},
      {"measurement": "EC50", "setting": "[2]", "result": "1 to 100", "unit": "µM"}
    ]}
  ]
}
